Assays:
[1] = target: T1, Estrogen Receptor (ERα) in MCF-7 human ductal carcinoma breast cell line (Homo sapiens, UniProt P03372); experiment: MCF-7 ER degradation assay (cell based immuno-fluorescence); details: MCF-7 cells; for DC50: 18-22 hours incubation, 50% reduction of ERα expression, single experiment or average of two or more, read-out: MCF-7 ER degradation IC50
T1 construct: endogenous in cells; host or cells: MCF-7
T1 sequence (P03372 1-595): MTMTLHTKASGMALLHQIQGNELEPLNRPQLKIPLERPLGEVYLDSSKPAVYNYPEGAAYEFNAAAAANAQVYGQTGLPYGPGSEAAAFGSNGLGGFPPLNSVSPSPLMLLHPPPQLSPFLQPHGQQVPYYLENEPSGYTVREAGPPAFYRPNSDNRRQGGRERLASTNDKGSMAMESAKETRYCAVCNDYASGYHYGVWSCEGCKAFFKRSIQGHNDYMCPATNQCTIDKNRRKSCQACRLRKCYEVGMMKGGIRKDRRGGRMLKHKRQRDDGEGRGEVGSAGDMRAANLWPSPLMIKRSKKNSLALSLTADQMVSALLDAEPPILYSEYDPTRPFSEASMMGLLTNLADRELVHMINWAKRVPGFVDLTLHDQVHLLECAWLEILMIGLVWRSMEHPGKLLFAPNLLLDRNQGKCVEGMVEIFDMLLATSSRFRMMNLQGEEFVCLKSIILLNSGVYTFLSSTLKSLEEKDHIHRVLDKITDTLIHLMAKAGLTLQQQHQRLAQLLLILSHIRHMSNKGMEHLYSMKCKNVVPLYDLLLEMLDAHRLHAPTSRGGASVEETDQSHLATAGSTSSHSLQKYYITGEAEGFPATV
Experimental: MCF-7 ER Degradation Assay
The ability of compounds to down-regulate Estrogen Receptor (ER) numbers was assessed in a cell based immuno-fluorescence assay using the MCF-7 human ductal carcinoma breast cell line. MCF-7 cells were revived directly from a cryovial (approx 5×10^6 cells) in Assay Medium (phenol red free Dulbecco's Modified Eagle's medium (DMEM); Sigma D5921) containing 2 mM L-Glutamine and 5% (v/v) Charcoal/Dextran treated foetal calf serum. Cells were syringed once using a sterile 18 G×1.5 inch (1.2×40 mm) broad gauge needle and cell density was measured using a Coulter Counter (Beckman). Cells were further diluted in Assay Medium to a density of 3.75×10^4 cells per mL and 40 μL per well added to transparent bottomed, black, tissue culture-treated 384 well plates (Costar, No. 3712) using a Thermo Scientific Matrix WellMate or Thermo Multidrop. Following cell seeding, plates were incubated overnight at 37° C., 5% CO2 (Liconic carousel incubator). Test data was generated using the LabCyte Echo™ model 555 compound reformatter which is part of an automated workcell (Integrated Echo 2 workcell). Compound stock solutions (10 mM) of the test compounds were used to generate a 384 well compound dosing plate (Labcyte P-05525-CV1). 40 μL of each of the 10 mM compound stock solutions was dispensed into the first quadrant well and then 1:100 step-wise serial dilutions in DMSO were performed using a Hydra II (MATRIX UK) liquid handling unit to give 40 μL of diluted compound into quadrant wells 2 (0.1 mM), 3 (1 μM) and 4 (0.01 μM), respectively. 40 μL of DMSO added to wells in row P on the source plate allowed for DMSO normalisation across the dose range. To dose the control wells 40 μL of DMSO was added to row O1 and 40 μL of 100 μM fulvestrant in DMSO was added to row O3 on the compound source plate.
The Echo uses acoustic technology to perform direct microplate-to-microplate transfers of DMSO compound solutions to assay plates. The system can be programmed to transfer volumes as low as 2.5 nL in multiple increments between microplates and in so doing generates a serial dilution of compound in the assay plate which is then back-filled to normalise the DMSO concentration across the dilution range. Compounds were dispensed onto the cell plates with a compound source plate prepared as above producing a 12 point duplicate […] dose range with 3-fold dilutions and one final 10-fold dilution using the Integrated Echo 2 workcell. The maximum signal control wells were dosed with DMSO to give a final concentration of 0.3%, and the minimum signal control wells were dosed with fulvestrant to give a final concentration of 100 nM accordingly. Plates were further incubated for 18-22 hours at 37° C., 5% CO2 and then fixed by the addition of 20 μL of 11.1% (v/v) formaldehyde solution (in phosphate buffered saline (PBS)) giving a final formaldehyde concentration of 3.7% (v/v). Cells were fixed at room temperature for 20 mins before being washed two times with 250 μL PBS/Proclin (PBS with a Biocide preservative) using a BioTek platewasher, 40 μL of PBS/Proclin was then added to all wells and the plates stored at 4° C. The fixing method described above was carried out on the Integrated Echo 2 workcell. Immunostaining was performed using an automated AutoElisa workcell. The PBS/Proclin was aspirated from all wells and the cells permeabilised with 40 μL PBS containing 0.5% Tween™ 20 (v/v) for 1 hour at room temperature. The plates were washed three times in 250 μL of PBS/0.05% (v/v) Tween 20 with Proclin (PBST with a Biocide preservative) and then 20 μL of ERα (SP1) Rabbit monoclonal antibody (Thermofisher) 1:1000 in PBS/Tween™/3% (w/v) Bovine Serum Albumin was added. The plates were incubated overnight at 4° C. (Liconic carousel incubator) and then washed three times in 250 μL of PBS/0.05% (v/v) Tween™ 20 with Proclin (PBST). […]

[2] = target: T2, recombinant human Estrogen Receptor alpha ligand binding domain, residues 307-554 (ER alpha-LBD (GST)) (Homo sapiens, UniProt P03372); experiment: ERα binding assay (LanthaScreen TR-FRET competition); details: TR-FRET competition with Fluormone ES2 tracer, 4 hours at room temperature; single experiment or average of two or more
T2 construct: made in house
T2 sequence (P03372 307-554): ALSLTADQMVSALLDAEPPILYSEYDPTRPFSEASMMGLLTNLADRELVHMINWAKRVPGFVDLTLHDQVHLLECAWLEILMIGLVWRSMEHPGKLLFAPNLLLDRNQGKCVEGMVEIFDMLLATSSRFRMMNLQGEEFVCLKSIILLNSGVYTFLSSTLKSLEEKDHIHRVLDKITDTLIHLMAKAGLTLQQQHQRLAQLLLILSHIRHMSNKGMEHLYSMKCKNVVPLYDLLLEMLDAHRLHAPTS
Experimental: The ability of compounds to bind to isolated Estrogen Receptor Alpha Ligand binding domain (ER alpha-LBD (GST)) was assessed in competition assays using a LanthaScreen™ Time-Resolved Fluorescence Resonance Energy Transfer (TR-FRET) detection end-point. For the LanthaScreen TR-FRET endpoint, a suitable fluorophore (Fluormone ES2, ThermoFisher, Product code P2645) and recombinant human Estrogen Receptor alpha ligand binding domain, residues 307-554 (expressed and purified in-house) were used to measure compound binding. The assay principle is that ER alpha-LBD (GST) is added to a fluorescent ligand to form a receptor/fluorophore complex. A terbium-labelled anti-GST antibody (Product code PV3551) is used to indirectly label the receptor by binding to its GST tag, and competitive binding is detected by a test compound's ability to displace the fluorescent ligand, resulting in a loss of TR-FRET signal between the Tb-anti-GST antibody and the tracer. The assay was performed as follows with all reagent additions carried out using the Beckman Coulter BioRAPTR FRD microfluidic workstation: • 1. Acoustic dispense 120 nL of the test compound into a black low volume 384 well assay plates. • 2. Prepare 1×ER alpha-LBD/Tb-antiGST Ab in ES2 screening buffer and incubate for 15 minutes. • 3. Dispense 6 μL of the […] reagent into each well of the assay plate followed by 6 μL of Fluorophore reagent into each well of the assay plate • 4. Cover the assay plate to protect the reagents from light and evaporation, and incubate at room temperature for 4 hours. • 5. Excite at 337 nm and measure the fluorescent emission signal of each well at 490 nm and 520 nm using the BMG PheraSTAR.
Compounds were dosed directly from a compound source microplate containing serially diluted compound (4 wells containing 10 mM, […] and 10 nM final compound respectively) to an assay microplate using the Labcyte Echo 550. The Echo 550 is a liquid handler that uses acoustic technology to perform direct microplate-to-microplate transfers of DMSO compound solutions and the system can be programmed to transfer multiple small nL volumes of compound from the different source plate wells to give the desired serial dilution of compound in the assay which is then back-filled to normalise the DMSO concentration across the dilution range.
In total 120 nL of compound plus DMSO were added to each well and compounds were tested in a 12-point concentration response format over a final compound concentration range of 10, 2.917, 1.042, 0.2083, 0.1, 0.0292, 0.0104, 0.002083, 0.001, 0.0002917, 0.0001042, and 0.00001 μM respectively. TR-FRET dose response data obtained with each compound was exported into a suitable software package (such as Origin or Genedata) to perform curve fitting analysis. Competitive ER alpha binding was expressed as an IC50 value. This was determined by calculation of the concentration of compound that was required to give a 50% reduction in tracer compound binding to ER alpha-LBD.

SMILES | DC50 [1] [nM] | IC50 [2] [nM] | ER degradation ≥ 90% at 0.3 μM ([1]; 0.3 μM, ER degradation by fulvestrant at 0.3 μM is defined as 100%)
Cc1ncsc1-c1ccc(CNC(=O)[C@@H]2C[C@@H](O)CN2C(=O)[C@@H](NC(=O)CCCN2CCN(CCCOc3cc(F)c([C@@H]4c5[nH]c6ccccc6c5C[C@@H](C)N4CC(C)(C)F)c(F)c3)CC2)C(C)(C)C)cc1 [Example 1, (2S,4R)-1-((S)-2-(4-(4-(3-(3,5-Difluoro-4-((1R,3R)-2-(2-fluoro-2-methylpropyl)-3-methyl-2,3,4,9-tetrahydro-1H-pyrido[3,4-b]indol-1-yl)phenoxy)propyl)piperazin-1-yl)butanamido)-3,3-dimethylbutanoyl)-4-hydroxy-N-(4-(4-methylthiazol-5-yl)benzyl)pyrrolidine-2-carboxamide] | 0.7 | 0.9 | –
Cc1ncsc1-c1ccc(CNC(=O)[C@@H]2C[C@@H](O)CN2C(=O)[C@@H](NC(=O)CN2CCN(CCCCCOc3cc(F)c([C@@H]4c5[nH]c6ccccc6c5C[C@@H](C)N4CC(C)(C)F)c(F)c3)CC2)C(C)(C)C)cc1 [Example 2, (2S,4R)-1-((S)-2-(2-(4-(5-(3,5-Difluoro-4-((1R,3R)-2-(2-fluoro-2-methylpropyl)-3-methyl-2,3,4,9-tetrahydro-1H-pyrido[3,4-b]indol-1-yl)phenoxy)pentyl)piperazin-1-yl)acetamido)-3,3-dimethylbutanoyl)-4-hydroxy-N-(4-(4-methylthiazol-5-yl)benzyl)pyrrolidine-2-carboxamide] | 2.9 | 0.6 | –
Cc1ncsc1-c1ccc(CNC(=O)[C@@H]2C[C@@H](O)CN2C(=O)[C@@H](NC(=O)COCC/C=C/CCOc2ccc([C@@H]3c4[nH]c5ccccc5c4C[C@@H](C)N3CC(F)F)nc2)C(C)(C)C)cc1 [Example 21, (2S,4R)-1-((S)-2-(2-(((E)-6-((6-((1S,3R)-2-(2,2-Difluoroethyl)-3-methyl-2,3,4,9-tetrahydro-1H-pyrido[3,4-b]indol-1-yl)pyridin-3-yl)oxy)hex-3-en-1-yl)oxy)acetamido)-3,3-dimethylbutanoyl)-4-hydroxy-N-(4-(4-methylthiazol-5-yl)benzyl)pyrrolidine-2-carboxamide] | 300 | 13 | –
Cc1ncsc1-c1ccc(CNC(=O)[C@@H]2C[C@@H](O)CN2C(=O)[C@@H](NC(=O)COCCCCOCCOc2ccc([C@@H]3c4[nH]c5ccccc5c4C[C@@H](C)N3CC(F)F)nc2)C(C)(C)C)cc1 [Example 24, (2S,4R)-1-((S)-2-(2-(4-(2-((6-((1S,3R)-2-(2,2-Difluoroethyl)-3-methyl-2,3,4,9-tetrahydro-1H-pyrido[3,4-b]indol-1-yl)pyridin-3-yl)oxy)ethoxy)butoxy)acetamido)-3,3-dimethylbutanoyl)-4-hydroxy-N-(4-(4-methylthiazol-5-yl)benzyl)pyrrolidine-2-carboxamide] | 300 | 18 | –
Cc1ncsc1-c1ccc(CNC(=O)[C@@H]2C[C@@H](O)CN2C(=O)[C@@H](NC(=O)COCCCOCCOc2cc(F)c([C@@H]3c4[nH]c5ccccc5c4C[C@@H](C)N3CC(C)(C)F)c(F)c2)C(C)(C)C)cc1 [Example 25, (2S,4R)-1-((S)-2-(2-(3-(2-(3,5-Difluoro-4-((1R,3R)-2-(2-fluoro-2-methylpropyl)-3-methyl-2,3,4,9-tetrahydro-1H-pyrido[3,4-b]indol-1-yl)phenoxy)ethoxy)propoxy)acetamido)-3,3-dimethylbutanoyl)-4-hydroxy-N-(4-(4-methylthiazol-5-yl)benzyl)pyrrolidine-2-carboxamide] | – | 0.5 | ••
